Several values for one entry are separate records, joined by “and”; a condition that tells them apart may be missing. Identical values can stand only once. Marks after values point to notes of the source that are not given here.
Experiments:
[1] = Bioavailability of oxycodone, codeine and dihydrocodeine from their succinyl valine ester prodrugs in the dog (oral gavage, two-way crossover); conditions: dogs; for T>50%Cmax of oxycodone: oral gavage, 1 mg free base equivalents oxycodone/kg
Experimental: The characteristics of the test animals are set out in Table 10, below.
Blood samples were taken at various times after administration and submitted to analysis for the parent drug and pro-drug using a validated LC-MS-MS assay. Pharmacokinetic parameters derived from the plasma analytical data were determined using Win Nonlin.

[2] = test system: guinea pig small intestine myenteric plexus longitudinal muscle; experiment: Ex vivo smooth muscle contractility, electrical field stimulation response of isolated guinea pig small intestine
gut motility in the rat = experiment: Charcoal propulsion test of GI motility in the rat; assay type: in vivo; conditions: oral
[3] = In vitro stability of dicarboxylate amino acid ester prodrugs in simulated gastric and intestinal juice, distilled water and pH 10 buffer (HPLC)
[4] = Comparative oral bioavailability of oxycodone from various dicarboxylate bridged amino acid prodrugs in dogs (nine-way crossover); assay type: in vivo, dog; conditions: 1 mg/kg oxycodone free base, mean (±sd)
[5] = Comparative pharmacokinetics of oxycodone after oral administration to female Sprague Dawley rats; conditions: 10 mg oxycodone free base equivalents/kg; for T>50%Cmax of oxycodone: oral
[6] = Comparative pharmacokinetics of oxycodone in the cynomolgus monkey after oral administration
[7] = Systemic availability of oxycodone after intranasal insufflation to dogs; conditions: nominal […] equivalents; for half-life: t½ of intact prodrug
[8] = cited from earlier work
[9] = in vivo; cited from earlier work
[10] = Plasma pharmacokinetics of meptazinol dicarboxylate linked prodrugs after oral gavage to dogs; assay type: in vivo, dog; conditions: dog, plasma, 1 mg meptazinol base equivalents/kg body weight, oral, read-out: expected Cmax of meptazinol after giving the drug itself
[11] = in vivo; cited from earlier work; remark: listed apart in the source
[12] = rat model; cited from earlier work
[13] = oral prodrug, individual rats, listed as Oxycodone succinyl valine enol ester
[14] = male cynomolgus monkeys, oral prodrug, 1 mg oxycodone free base equivalents/kg, individual monkeys 1-5

Compound: COc1ccc2c3c1O[C@H]1C(OC(=O)CCC(=O)NC(C(=O)O)C(C)C)=CC[C@@]4(O)[C@@H](C2)N(C)CC[C@]314 (stereo in doubt) [oxycodone-[succinyl-(S)-valine] enol ester]
- T>50%Cmax of oxycodone ([1]; individual dogs 1-5): 1.5 h (3×) and 2.5 h (2×)
- T>50%Cmax of oxycodone ([1]; median (n=5)): 1.5^a h
- period for which plasma concentrations were maintained above 50% of Cmax, compared to the drug itself ([1]; oral, oxycodone in plasma): three times longer
- EC50 ([2]; Cavia porcellus, isolated guinea pig ileum, concentration as free base of opioid, read-out: EC50, opioid effect on electrical field stimulation response): 2000 nM
- reduction in the opioid effects compared to oxycodone itself ([2]; guinea pig ileal smooth muscle): 10 fold
- % change from vehicle-treated animals, small intestine (gut motility in the rat; 10 mg/kg): −12.1%
- % change from vehicle-treated animals, total gut length (gut motility in the rat; 10 mg/kg): −11.2%
- % change from vehicle-treated animals, small intestine (gut motility in the rat; 30 mg/kg): −15.8%
- % change from vehicle-treated animals, total gut length (gut motility in the rat; 30 mg/kg): −15.6%
- delay of the passage of the charcoal meal (gut motility) (gut motility in the rat; 30 mg/kg or equimolar dose): ~16%
- % change from vehicle-treated animals, small intestine (gut motility in the rat; 100 mg/kg): −35.4%
- % change from vehicle-treated animals, total gut length (gut motility in the rat; 100 mg/kg): −35.0%
- Simulated gastric fluid (pH 1.1): % remaining after 2 h/37° C. ([3]; pH 1.1, 2 h, 37° C.): 98%
- Distilled water (pH 5.9): % remaining after 2 h/20° C. ([3]; pH 5.9, 2 h, 20° C.): 100%
- Simulated intestinal fluid (pH 6.8): % remaining after 2 h/37° C. ([3]; pH 6.8, 2 h, 37° C.): 85%
- pH 10.0 buffer: % remaining after 2 h/20° C. ([3]; pH 10.0, 2 h, 20° C.): 64%
- T50% Cmax of oxycodone [4]: 1.6 (±0.3) h.
- AUC(0-t) ([5]; female, Sprague Dawley, rat, plasma, po, AUCt of intact prodrug, oral prodrug, mean (BLQ taken as zero)): 1.24 ng·h/mL
- Cmax ([5]; female, Sprague Dawley, rat, plasma, po, Cmax of intact prodrug, oral prodrug, mean (BLQ taken as zero)): 2.35 ng/mL
- Tmax ([5]; female, Sprague Dawley, rat, plasma, po, Tmax of intact prodrug, oral prodrug, median): 22.5 min
- AUCt of intact prodrug [5, 13]: 3.53 ng · h/mL and 2.55 ng · h/mL and BLQ (2×) and 0.131 ng · h/mL
- Cmax of intact prodrug [5, 13]: 6.77 ng/mL and 2.00 ng/mL and BLQ and 1.93 ng/mL and 1.05 ng/mL
- Tmax of intact prodrug [5, 13]: 90 min
- T>50%Cmax of oxycodone ([5]; individual rats, listed as Oxycodone succinyl valine enol ester): 11.8 h (2×) and 3.5 h and 3.75 h and 2 h
- T>50%Cmax of oxycodone ([5]; median, listed as Oxycodone succinyl valine enol ester): 3.75^a h
- T>50%Cmax of oxycodone ([5]; median, listed as oxycodone succinyl valine ester): 3.75 h
- AUCt of intact prodrug [6, 14]: 0.76 ng·h/mL and 1.70 ng·h/mL and 0.39 ng·h/mL and 0.32 ng·h/mL and 0.71 ng·h/mL
- Cmax of intact prodrug [6, 14]: 1.29 ng/mL and 2.92 ng/mL and 0.57 ng/mL and 0.42 ng/mL and 1.02 ng/mL
- T>50%Cmax of oxycodone ([6]; male cynomolgus monkeys, oral, 1 mg oxycodone free base equivalents/kg, individual monkeys 1-5): 1.54 h and 1.63 h and 3.45 h and 4.43 h and 1.38 h
- T>50%Cmax of oxycodone ([6]; male cynomolgus monkeys, oral, 1 mg oxycodone free base equivalents/kg, mean (n=5)): 2.49 h
- T>50%Cmax of oxycodone ([6]; male cynomolgus monkeys, oral, 1 mg oxycodone free base equivalents/kg, mean (n=5), listed as oxycodone succinyl valine ester): 2.5 h
- AUC(0-t) ([6]; male, cynomolgus monkey, plasma, po, 1 mg oxycodone base equivalents/kg, AUCt of intact prodrug, male cynomolgus monkeys, oral prodrug, 1 mg oxycodone free base equivalents/kg, mean (n=5)): 0.78 ng·h/mL
- Cmax ([6]; male, cynomolgus monkey, plasma, po, 1 mg oxycodone base equivalents/kg, Cmax of intact prodrug, male cynomolgus monkeys, oral prodrug, 1 mg oxycodone free base equivalents/kg, mean (n=5)): 1.24 ng/mL
- prodrug Cmax as % of Cmax of the active drug ([6]; monkeys, oral prodrug): ~7%
- AUC of oxycodone ([6]; monkeys, oral, 1 mg oxycodone base equivalents/kg): 42.3 ng/h/mL
- AUC ([7]; male, beagle, dog, plasma, other: intranasal insufflation, 0.25 mg oxycodone free base equivalents/kg, AUC of intact prodrug, mean): 10.3 ng·h/mL
- AUC(0-t) ([7]; male, beagle, dog, plasma, other: intranasal insufflation, 0.25 mg oxycodone free base equivalents/kg, AUCt of intact prodrug, mean): 5.93 ng·h/mL
- Cmax ([7]; male, beagle, dog, plasma, other: intranasal insufflation, 0.25 mg oxycodone free base equivalents/kg, Cmax of intact prodrug, mean): 4.87 ng/mL
- Tmax ([7]; male, beagle, dog, plasma, other: intranasal insufflation, 0.25 mg oxycodone free base equivalents/kg, Tmax of intact prodrug, median): 15 min
- half-life ([7]; male, beagle, dog, plasma, other: intranasal insufflation, 0.25 mg oxycodone free base equivalents/kg, calculated as ln2/mean k): 45 min
- half-life ([7]; male, beagle, dog, plasma, other: intranasal insufflation, 0.25 mg oxycodone free base equivalents/kg, individual dogs): 51 min
- Tmax of intact prodrug ([7]; individual dogs): 60 min

Compound: CCC(=O)Oc1ccc2c3c1O[C@H]1[C@@H](O)C=C[C@H]4[C@@H](C2)N(C)CC[C@@]341 [morphine-3-propionate]
- half-life of hydrolysis in human plasma [8]: less than 5 minutes

Compound: CC(C)[C@H](N)C(=O)OCCOCn1cnc2c(=O)nc(N)[nH]c21 [valine ester of acyclovir]
- chemical degradation in the GI tract before absorption [9]: 15-25%

Compound: CCC1(c2cccc(O)c2)CCCCN(C)C1 (centres unmarked) [Meptazinol, meptazinol, reference compound]
- Cmax [10]: 2 to 5 ng/mL
- oral bioavailability [11]: < 10%

Compound: (Z)-3-[2-(propionyloxy)phenyl]-2-propanoic ester
- bioavailability over meptazinol itself [12]: significant increase in bioavailability

From patent US20100286186A1, “NOVEL DICARBOXYLIC ACID LINKED AMINO ACID AND PEPTIDE PRODRUGS OF OPIOIDS AND USES THEREOF” (Shire LLC, priority 2009, published 2010)
